Laboratory results as given in patent US20040197777A1, “Polymorphisms of the OCTN1 and OCTN2 cation transporters associated with inflammatory bowel disorders” (priority 2001, published 2004).

Tests used:
[1] = test system: OCTN1; settings: transfected Phoenix mouse fibroblast cells, 37° C.; FIG. 4
Procedure: Transfected Phoenix mouse fibroblast cells were loaded with ^14C-labeled TEA for 30 min. at 37° C., washed twice in cold transport buffer, and then resuspended in transport medium. Efflux was initiated at 37° C. and measured at 0, 4, 8, 12 and 30 minutes. Measurements were taken by washing twice in cold transport buffer, solubilizing with 1× cell culture lysis reagent (Promega) and quantifying the 14C retention from 150 μL aliquots. Cellular protein content was determined according to the BCA method. For sodium-free experiments, cells were suspended in medium with sodium replaced isotonically with N-methyl-D-glucamine.

[2] = test system: OCTN1; test: OCTN1 transporter assay: uptake of radiolabeled carnitine by cells transfected with OCTN1 L503 or L503F; format: cell-based, human
Procedure: Transient expression of OCTN1 (transporter assays) and OCT2 (luciferase promoter assays). For transient expression of wild-type or mutant (L503F; SEQ ID NO:7), HeLa cells were plated out at a density […] cells/dish in 100-mm plastic culture dishes (Falcon) and carnitine deficient human fibroblasts, (GM 10665) were plated out at a density 2.5×10^5 cells/well in 6-well plastic culture dishes (Falcon) 24 hr prior transfection with LipofectAMINE PLUS™ Reagent (Invitrogen, La Jolla, Calif., USA) as recommended by the manufacturer.
For HeLa cell culture, human HeLa cells were grown in D-MEM supplemented with 10% fetal bovine serum, 2 mM L-glutamine, 100 U/ml penicillin, and 100 μg/ml streptomycin. […]
For the OCTN1 transporter assays, carnitine transport measurements were made at room temperature using L-[^3H]carnitine as substrate, (specific activity 81 Ci/mmol, Moravek Biochemicals Inc.). […] The cells were then solubilized with 1× cell culture lysis reagent (Promega), and the associated radioactivity was quantitated in a liquid scintillation counter. Cellular protein content was determined according to the bicinchoninic acid method of Smith P K et al., Anal. Biochem. 150: 76-85 (1985), using BCA standard protein assay reagent kit (Pierce). […] The luciferase activity was measured on manual luminometer (Lumat LB 9501, Berthold). […]

[3] = test system: OCTN2 promoter; test: OCTN2 luciferase promoter assay; format: cell-based, human; settings: HeLa cells, 20 μM arachidonic acid at 37° C.; FIG. 2
Source text: For the OCTN2 luciferase promoter assays, a Dual-Luciferase Reporter Assay System (Promega) was used to study the effect of the mutation on the OCTN2 promoter region. The OCTN2-promoter luciferase reporter gene constructs were generated by PCR amplification of approximately 2.7 kb OCTN2-promoter fragments using genomic DNA from a patient homozygous for the G allele as a template and ligation into Bg/II/MluI site of the promoterless luciferase vector pRL-null (Promega) that uses luciferase from Renilla reniformis as a reporter. For PCR primers, two primers, OCTN2-BglII:
5′-[…]-3′ (SEQ ID NO:13) and OCTN2-M1uI: 5′-[…]-3′ (SEQ ID NO:14) were used. […]
To normalize the activity of the experimental reporter, constructs were cotransfected into HeLa cells with 20-fold less firefly luciferase plasmid pGL3-P as an internal control LipofectAMINE PLUS™ Reagent (Invitrogen, La Jolla, Calif., USA) as per the manufacturer's protocol. […] The luminescence from (Renilla luciferase reaction (“experimental” reporter a:) was measured simultaneously with the activity of firefly luciferase (“control” reporter) using Dual-Luciferase Reporter Assay System (Promega). The instrumentation used was a manual luminometer (Lumat LB 9501, Berthold). The cells transfected with empty vector under similar conditions served as control. All assays were carried out in triplicate.

[4] = test system: HSF1 binding to the OCTN2 promoter; test: OCTN2 gel shift assay (EMSA) with HeLa nuclear extracts; format: cell-based, human; settings: nuclear extract of HeLa cells treated with arachidonate; no binding at 37° C. alone
Procedure: For OCTN2 gel shift assays, human HeLa cells were grown in D-MEM supplemented with 10% fetal bovine serum, 2 mm […], 100 U/ml penicillin, and 100 μg/ml streptomycin at 37° C. in T-75 tissue culture flasks (Sarstedt). Heat-shocked cells were prepared by incubating the flasks in tissue culture incubator at 42° C. for 3 hr. For arachidonate experiment, the day before, the HeLa cells were starved over night with in serum-free D-MEM. The next day cells were washed twice with PBS. Cells were treated then with for 30 min with […] arachidonate at 37° C. The working concentrations were prepared from sodium arachidonate (Sigma) and stored in cold absolute ethanol as a 100 mM stock solution. Control cells were treated with an equivalent concentration of ethanol. Nuclear extracts were prepared by NP-40 based fractionation. This procedure is a modification of the procedure described by Baler R, Dahl G & Voellmy R, Mol. Cell. Biol. 13: 2486-2496 (1993). […] The protein concentration of the extracts was measured using the Bradford assay (Bio-Rad). […]
The reaction products were separated electrophoretically on 4% polyacrylamide gel for 3 h at 200 V, dried and exposed to film and detected by autoradiography.

[5] = test system: Ulcerative Colitis; settings: topical irrigation of the colon; cited from earlier work
[6] = test system: vascular inflammation; settings: various models of vascular inflammation in rodents; cited from earlier work

CC[N+](CC)(CC)CC [TEA, tetraethyl ammonium]
efflux of radiolabeled TEA by phenylalanine (L503F) variant of OCTN1 compared with leucine variant (L503) [1]: significant decrease in efflux

C[N+](C)(C)CC(O)CC(=O)[O-] (stereo not shown) [carnitine]
reduction toward vector baseline in uptake of radiolabeled carnitine, L503F vs leucine allele ([2]; cell line from an individual lacking OCTN2 expression, FIG. 3B): 5.2 fold
reduction toward the vector-alone baseline in uptake of radiolabeled carnitine, phenylalanine allele (L503F) vs leucine allele ([2]; transient transfection into HeLa cells, FIG. 3A): 3.6 fold

CCCCC/C=C\C/C=C\C/C=C\C/C=C\CCCC(=O)O [arachidonic acid]
decreased expression of luciferase construct with C allele of G-207C compared to the arachidonate-induced level [3]: 3.3 fold
binding of nuclear factor (HSF1) to oligonucleotide with wild-type G allele of OCTN2 promoter [4]: induced

CCC(=O)O[C@H](CC(=O)[O-])C[N+](C)(C)C [PLC, propyonil-L-carnitine]
effect on symptoms of Ulcerative Colitis [5]: improve some symptoms of Ulcerative Colitis
effect on inflammation [6]: inhibits inflammation
